Source: BindingDB's records for doi:10.7270/Q2ZC817P (The Scripps Research Institute Molecular Screening Center, 2007)
Structures can show the parent of a compound that is named as a salt.

Molecular target: Sphingosine 1-phosphate receptor 1 (Homo sapiens, UniProt P21453)
Assay: potentiators of S1P1 agonist response, dose response, cell-based, potentiator mode, 60K MLSMR set (AID 466)
Settings: not given

Chain of Sphingosine 1-phosphate receptor 1 (P21453 whole entry): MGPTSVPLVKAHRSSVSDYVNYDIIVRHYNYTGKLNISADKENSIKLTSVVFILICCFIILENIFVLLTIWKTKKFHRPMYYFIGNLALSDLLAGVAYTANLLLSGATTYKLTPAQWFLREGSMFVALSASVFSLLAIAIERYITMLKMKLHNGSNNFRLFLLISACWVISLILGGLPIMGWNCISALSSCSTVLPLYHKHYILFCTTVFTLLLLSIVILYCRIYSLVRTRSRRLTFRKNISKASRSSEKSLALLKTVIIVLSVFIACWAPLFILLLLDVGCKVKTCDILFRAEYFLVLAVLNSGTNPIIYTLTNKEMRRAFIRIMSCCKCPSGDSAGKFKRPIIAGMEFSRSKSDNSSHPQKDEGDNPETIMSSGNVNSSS

First: Cn1c(=O)oc2cc(S(=O)(=O)N3CCCC(C(=O)N4CC=C(c5ccccc5)CC4)C3)ccc21 (stereo not given) [3-methyl-6-[3-(4-phenyl-3,6-dihydro-2H-pyridine-1-carbonyl)piperidin-1-yl]sulfonyl-1,3-benzoxazol-2-one]
Second: COc1ccc(C(=O)C(CN2CCOCC2)c2ccccc2)cc1F (stereo not given) [1-(3-Fluoro-4-methoxy-phenyl)-3-morpholin-4-yl-2-phenyl-propan-1-one]
The EC50 of the first is 3.3-fold lower: 9.49 µM for the first, 31.1 µM for the second.

`O=S(=O)(NCc1cn2ccsc2n1)c1ccc(Oc2ccccc2)cc1` [MLS000094195] and `O=C(Nc1ccc(S(=O)(=O)NCc2ccco2)cc1)c1ccc2ccccc2n1` [MLS000098663] are within 1.5-fold of each other in EC50: 5 µM for the first, 6.51 µM for the second.

First: Nc1nonc1C(=O)NCCNCc1cc(Br)ccc1OCc1ccccc1F [4-amino-N-[2-[[5-bromo-2-(2-fluorobenzyl)oxy-benzyl]amino]ethyl]furazan-3-carboxamide;hydrochloride]
Second: Clc1ccc(OCc2nnc(-c3ccccc3Br)o2)c(Cl)c1 [2-(2-bromophenyl)-5-[(2,4-dichlorophenoxy)methyl]-1,3,4-oxadiazole]
The EC50 of the first is lower: 8.9 µM for the first, > 95 µM for the second.

Going from `OC1(c2cccc(C(F)(F)F)c2)CCN(c2ncnc3c2[nH]c2ccc(F)cc23)CC1` [1-(8-fluoranyl-5H-pyrimido[5,4-b]indol-4-yl)-4-[3-(trifluoromethyl)phenyl]piperidin-4-ol] to `c1ccc(N2CCN(c3ncnc4c3oc3ccccc34)CC2)cc1` [4-(4-phenyl-1-piperazinyl)benzofuro[3,2-d]pyrimidine], the EC50 rises from 4.41 µM to > 95 µM.

Compared with `Cc1cc(C=c2sc3nc4ccccc4n3c2=O)c(C)n1-c1ccccn1` [2-[(2,5-dimethyl-1-pyridin-2-yl-pyrrol-3-yl)methylidene]-[1,3]thiazolo[3,2-a]benzimidazol-1-one], `Cc1cc(C(=O)CSc2nnc(-c3ccncc3)n2-c2ccccc2)c(C)n1C` [2-[(4-phenyl-5-pyridin-4-yl-1,2,4-triazol-3-yl)sulfanyl]-1-(1,2,5-trimethylpyrrol-3-yl)ethanone] is 20-fold higher in EC50: 0.111 µM for the first, 2.23 µM for the second.

Going from `Cc1nc2ccccc2c2oc(C(=O)NCC3COc4ccccc4O3)cc12` (stereo not given) [MLS000118430] to `Cc1ccccc1-c1nnc(SCc2ccccc2F)o1` [2-[(2-fluorobenzyl)thio]-5-(2-methylphenyl)-1,3,4-oxadiazole], the EC50 falls from 9.7 µM to 1.27 µM (7.6-fold). The second is the more potent here.

First: c1ccc(-c2ccc(-c3nc(-c4cccnc4)no3)cc2)cc1 [5-(4-phenylphenyl)-3-(3-pyridinyl)-1,2,4-oxadiazole]
Second: c1ccc(-c2ccc(-c3nc(-c4ccncc4)no3)cc2)cc1 [5-(4-phenylphenyl)-3-(4-pyridyl)-1,2,4-oxadiazole]
The EC50 of the first is 4.4-fold lower: 1.91 µM for the first, 8.31 µM for the second. The first is the more potent here.

Going from `O=C(Nc1ccccc1C(F)(F)F)c1cc(-c2ccc(O)cc2)on1` [5-(4-hydroxyphenyl)-N-[2-(trifluoromethyl)phenyl]isoxazole-3-carboxamide] to `CCc1ccc(NC(=O)c2cc(-c3ccco3)on2)cc1` [MLS000087211], the EC50 rises from 0.778 µM to 4.44 µM (5.7-fold).

Going from `CN1/C(=C/C(=O)c2nc(S(C)(=O)=O)ncc2Cl)C(C)(C)c2ccccc21` to `Cc1ccccc1-n1c(SCC(=O)c2cc(C)n(C)c2C)nnc1-c1ccncc1` [2-[[4-(2-methylphenyl)-5-pyridin-4-yl-1,2,4-triazol-3-yl]sulfanyl]-1-(1,2,5-trimethylpyrrol-3-yl)ethanone], the EC50 rises from 9.04 µM to > 95 µM. The first is the more potent here.

Going from `CCC(NCc1ccc2c(c1)OCO2)=C1C(=O)NC(=O)N(C2CCCCC2)C1=O` [(5E)-5-[1-(1,3-benzodioxol-5-ylmethylamino)propylidene]-1-cyclohexyl-1,3-diazinane-2,4,6-trione] to `Cc1noc(C)c1S(=O)(=O)N(CC(=O)Nc1ccc2c(c1)OCO2)c1ccc(C(C)C)cc1` [MLS000117405], the EC50 rises from 8.66 µM to > 95 µM. The first is the more potent here.

Compared with `COc1ccc2[nH]c(=O)c3c(c2c1)OC(C)(C)C=C3`, `COc1ccc(CN=O)cc1COc1ccc(NC(C)=O)cc1` [MLS000111933] is higher in EC50: 6.25 µM for the first, > 95 µM for the second.

Going from `COc1ccc(NC(=O)c2cnn3c(C(F)(F)F)cc(-c4ccco4)nc23)cc1OC` [MLS000109325] to `COc1ccc(-c2nc(-c3ccccc3OC)no2)cc1OC` [5-(3,4-dimethoxyphenyl)-3-(2-methoxyphenyl)-1,2,4-oxadiazole], the EC50 falls from > 95 µM to 0.139 µM.

`O=C(c1ccccc1)C(CCC(CN1CCOCC1)C(=O)c1ccccc1)CN1CCOCC1` (stereo not given) [2,5-bis(4-morpholinylmethyl)-1,6-diphenylhexane-1,6-dione;hydrochloride] and `Cc1ccc(-c2nc(CSCC(=O)N3CCN(c4ccccn4)CC3)c(C)o2)cc1` [2-[[5-methyl-2-(4-methylphenyl)-1,3-oxazol-4-yl]methylsulfanyl]-1-(4-pyridin-2-ylpiperazin-1-yl)ethanone] are within 1.5-fold of each other in EC50: 4.14 µM for the first, 5.99 µM for the second.

Going from `COc1ccc(N2CCn3c2nc2c3c(=O)n(CCCc3ccccc3)c(=O)n2C)c(OC)c1` [6-(2,4-dimethoxyphenyl)-4-methyl-2-(3-phenylpropyl)-7,8-dihydropurin[7,8-a]imidazole-1,3-quinone] to `COc1ccc(-c2cn3c(C)c(C(=O)N4CCCc5ccccc54)sc3n2)cc1` [3,4-dihydro-2H-quinolin-1-yl-[6-(4-methoxyphenyl)-3-methyl-2-imidazo[2,1-b]thiazolyl]methanone], the EC50 rises from 8.71 µM to > 30 µM. The first is the more potent here.

`CCc1nnc(NC(=O)C2CCCCC2)s1` [MLS000104554] and `CCSc1nnc(NC(=O)C(Cc2ccccc2)n2cccc2)s1` (stereo not given) [MLS000119034] cannot be ordered by EC50: > 95 µM for the first, > 30 µM for the second.

Going from `Nc1ccc(N2CCOCC2)c(Cl)c1` [(3-chloro-4-morpholino-phenyl)amine] to `CN=C(NC#N)SCC(=O)c1ccc(Cl)cc1Cl` [[2-(2,4-dichlorophenyl)-2-oxidanylidene-ethyl] N-cyano-N'-methyl-carbamimidothioate], the EC50 rises from 0.981 µM to 4.32 µM (4.4-fold). The first is the more potent here.

First: COc1ccc(OC)c(-c2cc(C(=O)Nc3c(C)nn(Cc4ccc(Cl)cc4)c3C)no2)c1 [MLS000087191]
Second: COc1ccc(-c2noc(-c3cc(C)cc(C)c3)n2)cc1OC [3-(3,4-dimethoxyphenyl)-5-(3,5-dimethylphenyl)-1,2,4-oxadiazole]
The EC50 of the first is higher: > 10 µM for the first, 1.01 µM for the second. The second is the more potent here.

First: COc1ccc(-c2n[nH]cc2-c2ccc3c(c2)OCCO3)c(O)c1 [(6E)-6-[4-(2,3-dihydro-1,4-benzodioxin-6-yl)-1,2-dihydropyrazol-3-ylidene]-3-methoxycyclohexa-2,4-dien-1-one]
Second: CCCc1ccc(Oc2c[nH]nc2-c2ccc(O)c(C)c2O)cc1 [SMR000024172]
The EC50 of the first is 10-fold lower: 1.49 µM for the first, 14.9 µM for the second. The first is the more potent here.

Going from `CCCCOc1ccc(S(=O)(=O)Nc2cccnc2)cc1` [4-butoxy-N-(3-pyridinyl)benzenesulfonamide] to `Cc1ccc2oc(-c3ccc(NC(=O)c4cccnc4)cc3)nc2c1` [MLS000068975], the EC50 falls from 8.55 µM to 2.81 µM (3-fold).

Going from `COc1ccccc1N=C(N)Nc1nc(CSc2ccc(C)cc2)cc(=O)[nH]1` [1-(2-methoxyphenyl)-2-[6-[[(4-methylphenyl)thio]methyl]-4-oxo-1H-pyrimidin-2-yl]guanidine] to `COc1cc(CSc2nnnn2-c2ccc(C)cc2)cc(OC)c1OC` [1-(4-methylphenyl)-5-[(3,4,5-trimethoxybenzyl)thio]-1H-tetrazole], the EC50 falls from 9.15 µM to 2.87 µM (3.2-fold).

First: Cc1ccc(-c2n[nH]c(=S)n2C)cc1
Second: Cc1cc2nc(-c3ccc(NC(=O)C(C)C)cc3)oc2cc1C [MLS000109473]
The EC50 of the first is higher: > 95 µM for the first, 2.77 µM for the second.

With `CCOc1ccc(-c2nc(-c3ccccc3)no2)cc1OCC` [5-(3,4-diethoxyphenyl)-3-phenyl-1,2,4-oxadiazole] the EC50 was 0.107 µM.

Same assay, conditions: inactive by the depositor's call

`CC1CC(C)(C)Nc2ccc(OC(=O)c3ccco3)cc21` (stereo not given) [(2,2,4-trimethyl-3,4-dihydro-1H-quinolin-6-yl) furan-2-carboxylate] and `CC1=CC(C)(C)Nc2ccc(OC(=O)c3ccco3)cc21` are within 1.5-fold of each other in EC50: 14 µM for the first, 18 µM for the second.

`Cc1nc2sc(-c3ccccc3)cc2c(=O)n1-n1cccc1` [2-methyl-6-phenyl-3-(1-pyrrolyl)-4-thieno[2,3-d]pyrimidinone] and `O=S1(=O)C=C(Sc2nnc(-c3ccccc3)o2)c2ccccc21` are within 1.5-fold of each other in EC50: 17.6 µM for the first, 23.5 µM for the second.

Compared with `CCCOc1ccc(S(=O)(=O)NCc2ccc(OC)cc2)cc1` [MLS000104592], `CCOC(=O)c1oc2ccc(S(=O)(=O)n3nc(-c4ccc(OC)cc4)cc3N)cc2c1C` [5-[5-amino-3-(4-methoxyphenyl)pyrazol-1-yl]sulfonyl-3-methyl-coumarilic acid ethyl ester] is 2.2-fold higher in EC50: 19.8 µM for the first, 44.3 µM for the second.

`CCOc1nc(-c2ccccc2)ccc1-c1noc(-c2ccco2)n1` [2-Ethoxy-3-(5-furan-2-yl-[1,2,4]oxadiazol-3-yl)-6-phenyl-pyridine] and `Cc1nn(Cc2ccc(Cl)cc2)c(C)c1NC(=O)c1cc(-c2ccco2)on1` [MLS000087233] are within 1.5-fold of each other in EC50: 14.8 µM for the first, 14.1 µM for the second.

`Cc1ccc(N2C(=O)c3cccc4c(N5CCN(C)CC5)ccc(c34)C2=O)c2cccnc12` [6-(4-methyl-1-piperazinyl)-2-(8-methyl-5-quinolinyl)-1H-benzo[de]isoquinoline-1,3(2H)-dione] and `Cc1ccc(S(=O)(=O)Nc2cccc3ncccc23)s1` [5-methyl-N-quinolin-5-ylthiophene-2-sulfonamide] are within 1.5-fold of each other in EC50: 33.2 µM for the first, 27.6 µM for the second.

`CCCn1c(CNc2ccc(Br)cc2)nc2ccccc21` [(4-bromophenyl)-[(1-propylbenzimidazol-2-yl)methyl]amine] and `CN1c2ccccc2C(C)(C)C12C=Cc1cc(O)ccc1O2` (stereo not given) [1',3',3'-trimethyl-6-spiro[1-benzopyran-2,2'-indole]ol] are within 1.5-fold of each other in EC50: 12.8 µM for the first, 12.3 µM for the second.

Going from `CCCc1cc2c(=O)c(-c3ccccn3)coc2cc1OC` [7-methoxy-6-propyl-3-(2-pyridinyl)-1-benzopyran-4-one] to `COc1ccc2c(c1)-c1nc(NC(=O)c3cccs3)sc1CC2` [N-(8-methoxy-4,5-dihydrobenzo[e][1,3]benzothiazol-2-yl)-2-thiophenecarboxamide], the EC50 falls from 37.1 µM to 20.5 µM (1.8-fold).

`Oc1c(C(c2ccco2)N2CCN(C(c3ccccc3)c3ccccc3)CC2)sc2ncnn12` (stereo not given) [5-[(4-benzhydrylpiperazin-1-yl)-(furan-2-yl)methyl]-[1,3]thiazolo[3,2-b][1,2,4]triazol-6-ol] and `Nn1c(Nc2ccccc2)nc2sc3c(c2c1=O)CCC3` [2-amino-3-anilino-7,8-dihydro-6H-cyclopenta[2,3]thieno[2,4-b]pyrimidin-1-one] are within 1.5-fold of each other in EC50: 20.1 µM for the first, 21.7 µM for the second.

In the case of `O=c1oc2cc(Br)ccc2n1CSC1=NCCS1` [6-Bromo-3-(4,5-dihydro-thiazol-2-ylsulfanylmethyl)-3H-benzooxazol-2-one], the EC50 is reported as 17.6 µM.
